According to PMC3989207, “Subchronic Toxicological Study of Two Artemisinin Derivatives in Dogs” (PLoS ONE, 2014):

Assays:
[1] = parameters: method as in Li et al. (2006); details: applied to ARM plasma levels; ref Li et al. (2006); cited from earlier work
beagle dogs [2] = assay: Pathologic (histopathological) examination of organs, brain and cardiac conduction system; type: in vivo, dog
Experimental: (§1) The first day of treatment was regarded as day one in the study. […] Oral administration was performed about 2 h after feeding. ARM was administered by a bolus intramuscular infusion through a 25-gauge needle at a constant volume of 2 ml kg^−1 once a day into the gluteal and infraspinous muscles. Two dogs of each sex from each group were allowed to recover without further treatment for an additional 4 weeks.
(§2) Termination of treatment was scheduled to occur on weeks 4, 8 (two interim necropsies) and 13, followed by a 4-week recovery period. For pathological examinations, the animals were euthanized within 24 h of the final drug administration with sodium pentobarbital, followed by exsanguination via the femoral artery. A gross necropsy was performed, including a thorough visual examination of all the internal organs. Weights were obtained for the brain, heart, liver, spleen, lung, kidneys, adrenals, thyroid/parathyroids, thymus, pancreas and ovaries/testes/prostate, and organ-to-body weight ratios were calculated. For each animal, representative samples from approximately 48 organs and tissues were taken and fixed in neutral buffered 10% formalin, except for the sternum, which was retained in Helly’s fixative (1000 ml distilled water, 25 g potassium dichromate, 10 g sodium sulfate, 50 g mercuric chloride, 50 ml 40% formaldehyde). Histopathological sections of all samples were prepared by embedding in paraffin wax, multiple-sectioning and staining with hematoxylin and eosin (HE). Samples of the left ventricular myocardium, right lateral hepatic lobe and right kidney from two animals of each sex from each group were fixed immediately after exsanguination in 2.5% glutaraldehyde, post-fixed in 1.0% osmium tetroxide, and embedded in plastic. Ultrathin liver, kidney and heart sections were examined with a Hitachi H-600 transmission electron microscope (TEM). All other tissues were examined by light microscopy.
After removal, the cardiac conduction system, including the sinoatrial node (SAN) and atrioventricular node (AVN), were selected by the Palate method. The brain was sectioned at multiple transverse levels to obtain susceptible brain regions. To improve the definition of the brain lesions, toluidine stains were applied on selected duplicate sections, and all preparations were examined under a light microscope. For pathologic examinations, degenerative neurons were evaluated on three randomly selected brain sections. The adjacent fields of neurons in each selected section were counted using a microscope at a magnification of 200×. […] The severity of the neuropathological lesions was defined as follows: the total number of neuropathological lesions per section area yielded a severity score from 0 to 4, where 0 = unaffected, 1 = minimally affected neurons with one degenerative cell per section, 2 = two degenerative cells per section, 3 = three degenerative cells per section and 4 = multiple degenerative areas per section.

beagle dogs [3] = assay: Severity grading of muscle tissue injury at the intramuscular injection site; type: in vivo, dog; details: for Severity of muscle tissue injury at the injection site: n=4
Experimental: as §1, §2
Gross findings in the ART and ARM treatment groups were limited to the injection sites.

beagle dogs [4] = assay: Ultra-structural examination of liver, kidney and heart by transmission electron microscopy; type: in vivo, dog; details: weeks 4, 8 and 13; TEM
Experimental: as §1
Termination of treatment was scheduled to occur on weeks 4, 8 (two interim necropsies) and 13, followed by a 4-week recovery period. For pathological examinations, the animals were euthanized within 24 h of the final drug administration with sodium pentobarbital, followed by exsanguination via the femoral artery. A gross necropsy was performed, including a thorough visual examination of all the internal organs. Weights were obtained for the brain, heart, liver, spleen, lung, kidneys, adrenals, thyroid/parathyroids, thymus, pancreas and ovaries/testes/prostate, and organ-to-body weight ratios were calculated. For each animal, representative samples from approximately 48 organs and tissues were taken and fixed in neutral buffered 10% formalin, except for the sternum, which was retained in Helly’s fixative (1000 ml distilled water, 25 g potassium dichromate, 10 g sodium sulfate, 50 g mercuric chloride, 50 ml 40% formaldehyde). […]

Dogs = test system: Dogs; parameters: method as in Classen et al., 1999 [30]; details: 20 mg kg^−1 per day, i.m. for 30 days, ref Classen et al., 1999 [30]; cited from earlier work
[5] = Week 4, 6 mg kg^-1 per day (ART p.o., ARM i.m.)
[6] = Week 8, 6 mg kg^-1 per day (ART p.o., ARM i.m.)
[7] = Week 13, 6 mg kg^-1 per day (ART p.o., ARM i.m.)
[8] = Week 17 (after 4-week recovery)
[9] = both treated groups, no significant differences

CO[C@H]1O[C@@H]2O[C@@]3(C)CC[C@H]4[C@H](C)CC[C@@H]([C@H]1C)[C@@]24OO3 [ARM, artemether]
lowest observed neurotoxic effect level (plasma concentration) [1]: 40.92 ng/mL | Cardiac conduction system foci (dogs affected/examined) (beagle dogs [2]; [5]): 0 | Extramedullary hematopoiesis (dogs affected/examined) (beagle dogs [2]; [5]): 2/4 | Hepatocyte necrosis (dogs affected/examined) (beagle dogs [2]; [5]): 3/4 | Inhibition of erythropoiesis (dogs affected/examined) (beagle dogs [2]; [5]): 4/4 | Neuronal necrosis (dogs affected/examined) (beagle dogs [2]; [5]): 0 | Tubular cell degeneration (dogs affected/examined) (beagle dogs [2]; [5]): 4/4 | Cardiac conduction system foci (dogs affected/examined) (beagle dogs [2]; [6]): 0 | Extramedullary hematopoiesis (dogs affected/examined) (beagle dogs [2]; [6]): 3/4 | Hepatocyte necrosis (dogs affected/examined) (beagle dogs [2]; [6]): 2/4 | Inhibition of erythropoiesis (dogs affected/examined) (beagle dogs [2]; [6]): 2/4 | Neuronal necrosis (dogs affected/examined) (beagle dogs [2]; [6]): 2/4 | Tubular cell degeneration (dogs affected/examined) (beagle dogs [2]; [6]): 3/4 | Cardiac conduction system foci (dogs affected/examined) (beagle dogs [2]; [7]): 0 | Extramedullary hematopoiesis (dogs affected/examined) (beagle dogs [2]; [7]): 1/4 | Hepatocyte necrosis (dogs affected/examined) (beagle dogs [2]; [7]): 0 | Inhibition of erythropoiesis (dogs affected/examined) (beagle dogs [2]; [7]): 2/4 | Neuronal necrosis (dogs affected/examined) (beagle dogs [2]; [7]): 4/4 | Tubular cell degeneration (dogs affected/examined) (beagle dogs [2]; [7]): 2/4 | Cardiac conduction system foci (dogs affected/examined) (beagle dogs [2]; [8]): 0 | Extramedullary hematopoiesis (dogs affected/examined) (beagle dogs [2]; [8]): 0 | Hepatocyte necrosis (dogs affected/examined) (beagle dogs [2]; [8]): 0 | Inhibition of erythropoiesis (dogs affected/examined) (beagle dogs [2]; [8]): 0 | Neuronal necrosis (dogs affected/examined) (beagle dogs [2]; [8]): 1/4 | Tubular cell degeneration (dogs affected/examined) (beagle dogs [2]; [8]): 1/4 | dogs with neuropathological abnormalities (beagle dogs [2]; after the 4-week recovery period, mild damage): one of the four dogs | histological examination of sternal bone marrow (beagle dogs [2]; [9]): mild inhibition of erythropoiesis and a decreased count of mature erythrocytes | spleen histology (beagle dogs [2]; [9]): extramedullary hematopoiesis was observed in the spleen | mean severity score of the lesions in the brain (beagle dogs [2]; score 0 (unaffected) to 4 (multiple degenerative areas per section)): 2.14 | light microscopy of liver sections (beagle dogs [2]; some dogs, characterized as very mild): degenerative hepatocellular changes | histopathological changes in the kidneys (beagle dogs [2]; vs control groups): tubular epithelium vacuolation and necrosis | dogs with neuropathological abnormalities (beagle dogs [2]; week 8, two of the four dogs examined): 50% | dogs with neuropathological abnormalities (beagle dogs [2]; week 13, four of the four dogs examined): 100% | Severity of muscle tissue injury at the injection site (beagle dogs [3]; W4, 6 mg kg^−1 i.m., grades 0 (no significant lesions) to 5 (severe)): 2.25±0.87 | Severity of muscle tissue injury at the injection site (beagle dogs [3]; W8, 6 mg kg^−1 i.m., grades 0 to 5): 2.67±0.78 | Severity of muscle tissue injury at the injection site (beagle dogs [3]; W13, 6 mg kg^−1 i.m., grades 0 to 5): 3.92±1.08 | Severity of muscle tissue injury at the injection site (beagle dogs [3]; W17 (after 4-week recovery), grades 0 to 5): 3.84±0.72 | inflammation of muscle tissue at the injection site (beagle dogs [3]; i.m. injection, vs vehicle control group): more severely inflamed than that in the vehicle control group | ultra-structural findings in hepatocytes, myocardial cells and proximal tubules in the kidney (beagle dogs [4]): Mitochondrial bending and distortion and swollen vacuoles | Effect (toxicology) (Dogs): Axonal damage in the cerebellar roof, pontine and vestibular nuclei, and in the raphe/ paralemniscal region; hypochromic, microcytic anemia
